In one test the target is T1, MNK2a (Homo sapiens, UniProt Q9HBH9).
T1 construct: made in house
Kind of test: MNK2a in vitro kinase assay (assay 1), ADP-Glo. The format is biochemical. As to conditions: preactivated GST-MNK2a, 20 μM ATP, read-out: MNK2 IC50. How it is done: A. MNK2a In Vitro Kinase Assay (Assay 1)
ASSAY SETUP: The inhibition of kinase activity of MNK2a was assessed using preactivated GST-MNK2a. The white, 384-well OptiPlate F plates were purchased from Perkin Elmer. The ADP-Glo Kinase Assay (including ultra pure ATP) was purchased from Promega (V9103). Activated MNK2a was obtained as described in WO2011/104340. The unlabeled eIF4E peptide (NH2-[…]—CONH2) (SEQ ID NO: 1), differing from Seq. ID No. 5 of WO 2011/104340 by the C-terminal —CONH2 group, was purchased from Thermo Fisher Scientific. All other materials were of highest grade commercially available. Compounds are tested in either serial dilutions or single dose concentrations. The compound stock solutions are 10 mM in 100% DMSO The serial compound dilutions are prepared in 100% DMSO followed by 1:27.3 intermediate dilution in assay buffer. The final DMSO concentration in assay will be <3%. In the 384-well plates 3 μl of test compound from the intermediate dilution is mixed with 4 μl of the activated MNK2 enzyme (final concentration of 10 nM) and 4 μl of the peptide (final concentration of 25 μM)/ultra pure ATP (final concentration of 20 μM), all dissolved in assay buffer. This step is followed by an incubation time of 90 min, then 10 μl of ADP Glo reagent are added, followed by 40 min of incubation. Then 20 μl of kinase detection reagent are admixed. The plates are sealed and after an incubation period of 30 min, the luminescence signal is measured in an Envision reader to determine the amount of produced ADP. All incubation steps are performed at room temperature. The assay buffer consists of 20 mM HEPES, 2 mM DTT, 0.01% BSA, 20 mM MgCl2 and 0.1% Pluronic F-127.
Each assay microtiter plate contains wells with vehicle controls instead of compound (1% DMSO in water) as reference for the high signal (100% CTL, high signal), and wells containing a potent MNK2 inhibitor (final 20 μM, 1% DMSO) as reference for low signal (0% CTL, low signal).
The luminescent signal generated is proportional to the ADP concentration produced and is correlated with activated MNK2 activity. The analysis of the data is performed by the calculation of the percentage of ATP consumption of activated MNK2 in the presence of the test compound compared to the consumption of ATP in the presence of activated MNK2 without compound. (RLU(sample)−RLU(low control))*100/(RLU(high value)−RLU(low control)) [RLU=relative luminescence units]
An inhibitor of the MNK2 enzyme will give values between 100% CTL (no inhibition) and 0% CTL (complete inhibition). Values of more than 100% CTL are normally related to compound/sample specific physico-chemical properties (e.g. solubility, light absorbance, fluorescence).
IC50 values based on dose response curves are calculated with the AssayExplorer software.

The target in another test is MNK1a (Homo sapiens, UniProt Q9BUB5). In words: MNK1 in vitro kinase assay (assay 2), Z'-LYTE. The format is biochemical. As to conditions: compound concentration of 1 μM. An excerpt: B. MNK1 In Vitro Kinase Assay (Assay 2)
MNK1a, sequence (Q9BUB5 1-424 isoform Q9BUB5-2): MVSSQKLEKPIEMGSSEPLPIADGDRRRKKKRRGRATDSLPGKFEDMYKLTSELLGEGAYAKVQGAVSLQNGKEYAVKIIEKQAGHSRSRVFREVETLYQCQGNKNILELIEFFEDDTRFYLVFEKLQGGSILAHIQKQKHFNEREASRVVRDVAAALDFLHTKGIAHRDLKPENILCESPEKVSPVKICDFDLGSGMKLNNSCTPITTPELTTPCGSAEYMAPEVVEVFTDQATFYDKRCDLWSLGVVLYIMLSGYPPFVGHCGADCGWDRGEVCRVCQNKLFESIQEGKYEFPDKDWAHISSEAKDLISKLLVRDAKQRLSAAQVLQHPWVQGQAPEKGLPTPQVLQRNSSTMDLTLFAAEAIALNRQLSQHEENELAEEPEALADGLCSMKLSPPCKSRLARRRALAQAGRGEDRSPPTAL
MNK1 Data can be obtained from the MNK1 Z′-LYTE® assay. The MNK1 Z′-LYTE® screening protocol and assay conditions are also described on www.invitrogen.com.
The assay is described as follows:
The Z′-LYTE® biochemical assay employs a fluorescence-based, coupled-enzyme format and is based on the differential sensitivity of phosphorylated and non-phosphorylated peptides to proteolytic cleavage. The peptide substrate is labeled with two fluorophores—one at each end—that make up a FRET pair.
In the primary reaction, the kinase transfers the gamma-phosphate of ATP to a single tyrosine, serine or threonine residue in a synthetic FRET-peptide. In the secondary reaction, a site-specific protease recognizes and cleaves non-phosphorylated FRET-peptides. Phosphorylation of FRET-peptides suppresses cleavage by the Development Reagent. Cleavage disrupts FRET between the donor (i.e., coumarin) and acceptor (i.e., fluorescein) fluorophores on the FRET-peptide, whereas uncleaved, phosphorylated FRET-peptides maintain FRET. A ratiometric method, which calculates the ratio (the Emission Ratio) of donor emission to acceptor emission after excitation of the donor fluorophore at 400 nm, is used to quantitate reaction progress, as shown in the equation below. Emission Ratio=Coumarin Emission(445 nm)/Fluorescein Emission(520 nm)
ASSAY SETUP: The inhibition of kinase activity of MNK1a was assessed using pre-activated GST-MNK1a. The 2×MKNK1 (MNK1) mixture is prepared in 50 mM HEPES pH 7.5, 0.01% BRIJ-35, 10 mM MgCl2, 4 mM MnCl2, 1 mM EGTA, 2 mM DTT. The final 10 μL Kinase Reaction consists of 13.5-54 ng MKNK1 (MNK1) and 2 μM Ser/Thr 07 in 50 mM HEPES pH 7.5, 0.01% BRIJ-35, 10 mM MgCl2, 2 mM MnCl2, 1 mM EGTA, 1 mM DTT. After the 1 hour Kinase Reaction incubation, 5 μL of a 1:32768 dilution of Development Reagent A is added.
The Test Compounds are screened in 1% DMSO (final) in the well.
All Peptide/Kinase Mixtures are diluted to a 2× working concentration in the MNK1 Kinase Buffer.
All ATP Solutions are diluted to a 4× working concentration in Kinase Buffer (50 mM HEPES pH 7.5, 0.01% BRIJ-35, 10 mM MgCl2, 1 mM EGTA).
Development Reagent Solution:
The Development Reagent is diluted in Development Buffer
Bar-coded Corning, low volume NBS, 384-well plate (Corning Cat. #3676)
1. 2.5 μL-4× Test Compound
2. 5 μL-2× Peptide/Kinase Mixture
5. 60-minute Kinase Reaction incubation at room temperature
6. 5 μL-Development Reagent Solution
8. 60-minute Development Reaction incubation at room temperature
9. Read on fluorescence plate reader and analyze the data
The following equations are used for each set of data points: […]
Correction for Background Fluorescence: FSample−FITCFl Ctl
Emission Ratio (using values corrected for background fluorescence):Coumarin
Emission (445 nm)/Fluorescein Emission (520 nm)
% Phosphorylation (% Phos): 1−((Emission Ratio×F100%)−C100%)/((C0%−C100%)+[Emission Ratio×(F100%−F0%)])*100 % Inhibition: 1−(% PhosSample/% Phos0% Inhibition Ctl)*100 FI=Fluorescence Intensity C100%=Average Coumarin emission signal of the 100% Phos. Control C0%=Average Coumarin emission signal of the 0% Phos. Control F100%=Average Fluorescein emission signal of the 100% Phos. Control F0%=Average Fluorescein emission signal of the 0% Phos. Control Graphing Software
SelectScreen® Kinase Profiling Service uses XLfit from IDBS. The dose response curve is curve fit to model number 205 (sigmoidal dose-response model).

Structures are written as SMILES.

T1 sequence (Q9HBH9 whole entry): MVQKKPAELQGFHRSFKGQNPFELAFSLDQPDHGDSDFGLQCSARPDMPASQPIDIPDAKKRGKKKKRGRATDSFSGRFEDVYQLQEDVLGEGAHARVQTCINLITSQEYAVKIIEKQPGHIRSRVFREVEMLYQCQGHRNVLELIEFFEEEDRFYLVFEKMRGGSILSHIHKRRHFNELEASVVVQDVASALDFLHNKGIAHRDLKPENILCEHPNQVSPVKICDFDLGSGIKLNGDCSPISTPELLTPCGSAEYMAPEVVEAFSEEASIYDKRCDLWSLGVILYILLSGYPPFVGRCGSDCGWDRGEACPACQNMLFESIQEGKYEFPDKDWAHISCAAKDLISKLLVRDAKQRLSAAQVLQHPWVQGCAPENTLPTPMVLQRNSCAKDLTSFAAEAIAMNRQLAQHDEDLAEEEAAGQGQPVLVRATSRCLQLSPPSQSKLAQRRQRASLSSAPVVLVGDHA

As for `Cc1cc(N=S(C)(C)=O)cc2ncnc(Nc3ccc(F)cc3O[C@@H]3CO[C@@H]4OCC[C@@H]43)c12` (racemic) [Example 2.62], the IC50 at MNK2a was 11 nM. 1 µM produced 73% inhibition on MNK1a.
Consider `Cc1cc(N=S(C)(C)=O)cc2ncnc(Nc3ccc(Br)cc3OC3CCOCC3)c12` [Example 1.10], for which, at MNK1a, at 1 µM the inhibition was 80%.
On MNK1a, `Cc1cc(N=S(C)(C)=O)cc2ncnc(Nc3ccc(F)cc3O[C@H]3CO[C@H]4[C@@H]3OC[C@H]4O)c12` [Example 2.19] registered an inhibition at 1 µM of 47%.
As to `Cc1cc(N=S2(=O)CCN(C(=O)OC(C)(C)C)CC2)cc2ncnc(Nc3ccc(F)cc3O[C@H]3CO[C@H]4[C@@H]3OC[C@H]4O)c12` [Example 2.21], on MNK1a, the inhibition at 1 µM amounted to 81%.
On to `CC(C)(C)OC(=O)N1CC[C@@H](Oc2cc(F)ccc2Nc2ncnc3cc(N=S(C)(C)=O)cc(F)c23)C1` [Example 2.32], for which at 1 µM the inhibition against MNK1a was 50%.
Same read-out and setting: the same measure for `CO[C@H]1CC[C@H](Oc2cc(F)ccc2Nc2ncnc3cc(N=S(C)(C)=O)cc(F)c23)CC1` [Example 2.46]: 88%; for `Cc1cc(N=S(C)(C)=O)cc2ncnc(Nc3ccc(F)cc3O[C@@H]3CCN(C(=O)OC(C)(C)C)C3)c12` [Example 2.52]: 60%.
`COCCS(C)(=O)=Nc1cc(C)c2c(Nc3ccc(F)cc3O[C@H]3CCOC3)ncnc2c1` (stereo partly shown) [Example 2.63] yielded an inhibition at 1 µM at MNK1a of 85%.
`Cc1cc(N=S2(=O)CCCC2)cc2ncnc(Nc3cccnc3O[C@H]3CC[C@H](O)CC3)c12` [Example 2.69]: the IC50 at MNK2a is 2 nM.
On the same count and under the same terms, for `Cc1cc(N=S(C)(C)=O)cc2ncnc(Nc3ccc(F)cc3OC3CCCC3)c12` [Example 2.70] the value was 2 nM.
The same measure, in the same setting: for `Cc1cc(N=S(C)(C)=O)cc2ncnc(Nc3ccc(F)cc3O[C@H]3CC[C@H](O)CC3)c12` [Example 2.71] the value was 3 nM; for `Cc1cc(N=S(C)(C)=O)cc2ncnc(Nc3ccc(F)cc3O[C@H]3CC[C@@](C)(O)CC3)c12` [Example 2.74], 3 nM; for `Cc1cc(N=S2(=O)CCCCC2)cc2ncnc(Nc3ccc(F)cc3O[C@H]3CCOC3)c12` [Example 2.78], 3 nM.
Still for that read-out and setting: the same measure for `Cc1cc(N=S2(=O)CCCC2)cc2ncnc(Nc3ccc(F)cc3O[C@@H]3CO[C@H]4[C@@H]3OC[C@@H]4O)c12` [Example 2.83]: 1 nM.
With `Cc1cc(N=S2(=O)CCCC2)cc2ncnc(Nc3ccc(F)cc3O[C@H]3CCOC3)c12` [Example 2.85], testing at 1 µM against MNK1a gave an inhibition of 100%.
The same measure, in the same setting: for `CCS(=O)(CC)=Nc1cc(C)c2c(Nc3ccc(F)cc3O[C@@H]3CO[C@H]4[C@@H]3OC[C@H]4O)ncnc2c1` [Example 2.86] the value was 89%.
For `CS(C)(=O)=Nc1cc(F)c2c(Nc3ccc(F)cc3O[C@H]3CCOC3)ncnc2c1` [Example 2.89], the IC50 on MNK2a was found to be 3 nM.
Still for that read-out and setting: the same measure for `COc1cc(N=S2(=O)CCCC2)cc2ncnc(Nc3ccc(F)cc3O[C@H]3CC[C@H](O)CC3)c12` [Example 2.90]: 2 nM.
For the compound `Cc1cc(N=S2(=O)CCC(O)C2)cc2ncnc(Nc3ccc(F)cc3O[C@H]3CCOC3)c12` (stereo partly shown) [Example 2.93], on MNK2a, the IC50 turned out to be 4 nM.
The same measure, in the same setting: the same measure for `Cc1cc(N=S(C)(=O)c2ccncc2)cc2ncnc(Nc3ccc(F)cc3O[C@@H]3CO[C@@H]4CCO[C@@H]43)c12` (stereo partly shown) [Example 2.96]: 4 nM.
In the case of `COC1CS(=O)(=Nc2cc(C)c3c(Nc4ccc(F)cc4O[C@@H]4CO[C@@H]5CCO[C@@H]54)ncnc3c2)C1` (stereo partly shown) [Example 2.105], on MNK2a, the IC50 was 2 nM.
In turn, `Cc1cc(N=S2(=O)CCCC2)cc2ncnc(Nc3ccc(F)cc3O[C@@H]3CCNC3)c12` [Example 3.4] came in with an inhibition at 1 µM against MNK1a of 92%.
Turning to `Cc1cc(N=S(C)(C)=O)cc2ncnc(Nc3ccc(F)cc3O[C@H]3C[C@H](N)C3)c12` [Example 3.14], on MNK2a, the IC50 was 2 nM.
On the same count and under the same terms, for `Cc1cc(N=S2(=O)CCCC2)cc2ncnc(Nc3ccc(F)cc3OC3CCc4ccccc43)c12` (stereo not shown) [Example 4.6] the value was 3 nM.
Regarding `Cc1cc(N=S(C)(C)=O)cc2ncnc(Nc3ccc(F)cc3OC3CCOC3=O)c12` (stereo not shown) [Example 4.13], the inhibition at 1 µM against MNK1a worked out at 75%.
Take `COc1cc(N=S(C)(C)=O)cc2ncnc(Nc3ccc(F)cc3O[C@H]3CCOC3)c12` [Example 5.2]: the IC50 on MNK2a amounted to 2 nM.
With `Cc1cc(N=S2(=O)CCCC2)cc2ncnc(Nc3ccc(F)cc3O[C@@H]3CCCN(S(C)(=O)=O)C3)c12` [Example 6.3], the IC50 on MNK2a is 2 nM.
The same measure, in the same setting: the same measure for `Cc1cc(N=S2(=O)CCCC2)cc2ncnc(Nc3ccc(F)cc3O[C@@H]3CCN(CC(F)F)C3)c12` [Example 6.4]: 2 nM.
Regarding `Cc1cc(N=S(C)(C)=O)cc2ncnc(Nc3cccnc3O[C@@H]3CCCN(CC(C)(C)O)C3)c12` [Example 6.5], 1 µM produced 91% inhibition against MNK1a.
With `Cc1cc(N=S(C)(C)=O)cc2ncnc(Nc3ccc(F)cc3O[C@@H]3CCN(CC(F)F)C3)c12` [Example 6.14], the IC50 on MNK2a was found to be 3 nM.
The compound `CC(C)(O)CN1CCC[C@@H](Oc2ncccc2Nc2ncnc3cc(N=S(C)(C)=O)cc(F)c23)C1` [Example 6.19] showed an inhibition at 1 µM at MNK1a of 70%.
On MNK1a, `COC(=O)N1CCS(=O)(=Nc2cc(C)c3c(Nc4ccc(F)cc4O[C@H]4CC[C@H](OC)CC4)ncnc3c2)CC1` [Example 7.3] displayed an inhibition at 1 µM of 72%.
On to `CCc1cc(N=S(C)(C)=O)cc2ncnc(Nc3ccc(F)cc3O[C@H]3CCOC3)c12` [Example 7.8], for which, at MNK2a, the IC50 was determined as 9 nM.

For the origin of these results see patent publication US8901138B2, “Sulfoximine substituted quinazolines for pharmaceutical compositions” (Boehringer Ingelheim International GmbH, priority 2012, dated 2014).
